Measured values as given in patent publication US8470776B2, “Conjugates of disorazoles and their derivatives with cell-binding molecules, novel disorazole derivatives, processes of manufacturing and uses thereof” (Aeterna Zentaris GmbH, priority 2006, dated 2013).
Converted amounts (≈) assume the structure as drawn.

Assays:
[1] = tested on: ovarian adenocarcinoma cell line SKOV-3; assay: cells; assay type: cell-based, human; conditions: for IC50 SKOV-3: XTT, 45 h incubation
Source text: (§1) Selected compounds of the invention were investigated for their antiproliferative activity in a proliferation test on established tumor cell lines.
(§2) The test used determines the cellular dehydrogenase activity and makes possible a determination of the cell vitality and indirectly the cell count.
(§3) The cell lines used are the human cervical carcinoma cell line KB/HeLa (ATCC CCL17), the ovarian adenocarcinoma cell line SKOV-3 (ATCC HTB77), the human glioblastoma cell line SF-268 (NCI-503138) and the lung carcinoma cell line NCI-H460 (NCI-503473). In addition, for the investigation of the cell cycle-specific action of the compounds of the invention, an RKOp27 cell system was used (Schmidt M et al. Oncogene 2000, 19(20): 2423-2429). RKO is a human colon carcinoma cell line (ATCC CRL-2577), in which the cell cycle inhibitor p27^kip1 induced by means of the ecdysone expression system is expressed and can be led to a cell cycle arrest specifically in […]. A nonspecifically acting substance inhibits the proliferation independently of whether the RKO cell is or is not arrested in G1 or G2. Cell cycle-specific substances such as, for example, tubulin inhibitors are, however, only cytotoxic if cells are not arrested and the cell cycle is passed through.
(§4) The adherently growing tumor cell lines KB/HeLa, SKOV-3, SF-268 and NCI-H460 were cultured under standard conditions in an incubator at 37° C., 5% CO2 and 95% atmospheric humidity. On experimental day 1, the cells are detached using trypsin/EDTA and pelleted by centrifugation. Subsequently, the cell pellet is resuspended in the respective culture medium at the corresponding cell count and reacted in a 96-well microtiter plate. The plates are then cultured overnight in the incubator. The test substances are prepared as 1 mg/ml stock solutions in DMSO and diluted to the appropriate concentrations on experimental day 2 using culture medium. The substances in culture medium are then added to the cells and incubated in the incubator for 45 h. As a control, cells which are not treated with test substance are used. For the XTT assay, 1 mg/ml of XTT (sodium 3′-[1-(phenylaminocarbonyl)-3,4-tetrazolium]-bis(4-methoxy-6-nitro)benzenesulfonic acid) is dissolved in RPMI-1640 medium without Phenol Red. Additionally, a 0.383 mg/ml PMS (N-methyldibenzopyrazine methylsulfate) solution in phosphate-buffered saline solution (PBS) is prepared. On experimental day 4, 75 μl/well of XTT-PMS mixture is pipetted onto the cell plates which in the meantime have been incubated with the test substances for 45 h. For this, shortly before use, the XTT solution is mixed with the PMS solution in the ratio 50:1 (vol:vol). The cell plates are then incubated in the incubator for a further 3 h and the optical density (OD490 nm) is determined in a photometer. By means of the OD490 nm determined, the percentage inhibition is calculated relative to the control and plotted semilogarithmically in the form of a concentration-action curve. The IC50 is calculated by means of a regression analysis from the concentration-action curve using the program Graphpad Prism.

[2] = tested on: lung carcinoma cell line NCI-H460; assay: cells; assay type: cell-based, human; conditions: for IC50 NCI-H460: XTT, 45 h incubation
Source text: as §1, §2, §3, §4

[3] = tested on: GnRH receptor positive, human ovarian carcinoma cell line OVCAR-3; assay: OVCAR-3 tumors in nude mice, single i.v. dose; assay type: in vivo, CD 1 nu/nu nude mice; conditions: for Average tumor size day 18: once on day 0, tail vein; for Average tumor size day 0: tail vein, day 0 (baseline before dosing)
Description: 30 CD 1 nu/nu nude mice were inoculated subcutaneously with the GnRH receptor positive, human ovarian carcinoma cell line OVCAR-3 (5 million cells per animal). The experiment was started after formation of solid tumors. 5 animals per dose group were used.
On day 0 of the experiment, the individual tumor volume was determined by palpation and set to 100%. Test compounds were administered subsequently on day 0 of the experiment by injection into the tail vein of the test animals.
A standard volume of 10 ml of 0.9% saline per kg (200 μl per 20 g mouse) containing the test compound in the required concentration was administered once only on day 0 of the experiment.
The tumor size was determined again by palpation on day 18 of the experiment.
In the case of appearance of additional tumors, the volumes were added.

[4] = tested on: human GnRH receptor (hGnRH-R) positive cell line 5C6; assay: GnRH-receptor dependent proliferation assay, 5C6; assay type: cell-based; conditions: 30 min exposure, vital cells vs untreated control = 100%
Description: (§5) The dose-dependent receptor-mediated inhibition of cell proliferation of selected compounds of the invention was investigated.
(§6) To study these effects a human GnRH receptor (hGnRH-R) positive cell line (5C6; Beckers et al., Eur. J. Biochem. 1995, 231: 535-543) and an hGnRH-R negative cell line (LTK^−; ECACC No. 85011432) was used.
(§7) Respective cells were exposed to 1 mL culture medium in 24 well multi-titer-plates (MTPs) with a cell number of 15000 cells per well. The cell number is adjusted in such a way that after 5 days of testing the untreated control cells are still in the exponential growth phase.
(§8) Test compounds are given to the cultured cells after 4 hours of initial growth (adherence) in a volume of 100 μL to yield the final concentrations given in table 2.
(§9) After 30 min of incubation at 37° C. the entire culture medium is sucked off and the cells are washed twice with culture medium without test compounds. After the washing the cells are placed into an incubator (at 37° C., 5% CO2 and 95% atmospheric humidity) and incubated for further 4 days.
(§10) For the determination of the cell number after incubation the cells are detached using trypsin/EDTA and centrifuged. The number of vital cells and the total cell number are counted using a Vi-Cell Analyzer (Beckman Coulter).
(§11) The number of vital cells is analyzed in comparison with untreated control cells (=100%). Only cell groups (respective wells) are considered of which the total cell viability is more than 90%, i.e. inhibition of cell proliferation by unspecific toxicity can be excluded.
(§12) The proliferation status of untreated control cells after 96 hours is set to 100%.

[5] = tested on: hGnRH-R negative cell line LTK−; assay: GnRH-receptor dependent proliferation assay, LTK-; assay type: cell-based; conditions: 30 min exposure, vital cells vs untreated control = 100%
Description: as §5, §6, §7, §8, §9, §10, §11, §12

[6] = tested on: human glioblastoma cell line SF-268; assay: cells; assay type: cell-based; conditions: for IC50 SF-268: XTT, 45 h incubation
Source text: as §1, §2, §3, §4

[7] = tested on: human cervical carcinoma cell line KB/HeLa; assay: cells; assay type: cell-based; conditions: for IC50 KB/HELA: XTT, 45 h incubation
Source text: as §1, §2, §3, §4

[8] = tested on: RKOp27 cells (human colon carcinoma cell line RKO), p27kip1 not induced; assay: cells; assay type: cell-based; conditions: for IC50 RKOp27: without expression of p27kip1, XTT, 45 h
Source text: as §3, §4
(§13) The assay is carried out in 96-well plates. […] By comparison of the activity on induced and noninduced cells, conclusions on the mechanism of action (cell cycle specificity) of the therapeutics can be drawn. […] cells are inoculated in approximately three-fold higher cell count, since division no longer takes place during the assay in comparison with uninduced cells (20000 cells/well induced, 6250 cells/well not induced). The controls are untreated cells (+/−induction). The induction is carried out with 3 μM muristerone A. On the 1st day, the cells are exposed (+/−muristerone A) and incubated at 37° C. for 24 h. On day 2, the test substance is added (control DMSO) and incubation is continued at 37° C. for a further 45 h before a standard XTT assay is carried out.

[9] = tested on: RKOp27 cells (human colon carcinoma cell line RKO), p27kip1 induced; assay: cells; assay type: cell-based; conditions: for IC50 RKOp27 induced: p27kip1 induced with 3 μM muristerone A, XTT, 45 h
Source text: as §3, §4, §13

cell models = conditions: reported in literature; cited from earlier work
mammalian cells = conditions: Elnakady et al. 2004; cited from earlier work
[10] = tested on: various human tumor cell lines; conditions: nano- and picomolar concentrations; WO 2004/024149; cited from earlier work
[11] = tested on: paclitaxel- and vindesine-resistant cell lines; conditions: WO 2004/024149; cited from earlier work

For `C/C=C/C(O)C(C)(C(=O)OC)C1C\C=C/C=C/C=C/c2nc(co2)C(=O)OC(C(C)(C(=O)OC)C(/C=C/C)OC(=O)CCC(=O)NCCCC[C@H](NC(=O)[C@H](Cc2ccc(O)cc2)NC(=O)[C@H](CO)NC(=O)[C@H](Cc2c[nH]c3ccccc23)NC(=O)[C@H](Cc2cnc[nH]2)NC(=O)[C@@H]2CCC(=O)N2)C(=O)N[C@@H](CC(C)C)C(=O)N[C@@H](CCCNC(=N)N)C(=O)N2CCC[C@H]2C(=O)NCC(N)=O)C\C=C/C=C/C=C/c2nc(co2)C(=O)O1` (stereo partly drawn) [compound 16, Disorazole Z Mono Hemi Succinyl [D-Lys^6]LHRH], the “IC50 SKOV-3” value [1] was 7.683 ng/mL (≈ 3.69 nM), the “IC50 NCI-H460” value [2] was 9.235 ng/mL (≈ 4.43 nM) and the “Average tumor size day 18” value ([3]; 0.1 mg/kg = 43 nmol/kg, day 18) was 76. For the same compound, the “Average tumor size day 0” value ([3]; 0.1 mg/kg = 43 nmol/kg) was 79, the “Average tumor size day 18” value ([3]; 0.5 mg/kg = 215 nmol/kg, day 18) was 40 and the “Average tumor size day 0” value ([3]; 0.5 mg/kg = 215 nmol/kg) was 74. The “proliferation status after 96 hours, cell line 5C6, 0.1 nM” value ([4]; 0.1 nM) was 83.8%, the “proliferation status after 96 hours, cell line 5C6, 1 nM” value ([4]; 1 nM) was 80.9% and the “proliferation status after 96 hours, cell line 5C6, 10 nM” value ([4]; 10 nM) was 54.1%. The “proliferation status after 96 hours, cell line 5C6, 100 nM” value ([4]; 100 nM) was 21.9%, the “proliferation status after 96 hours, cell line LTK−, 0.1 nM” value ([5]; 0.1 nM) was 101.8% and the “proliferation status after 96 hours, cell line LTK−, 1 nM” value ([5]; 1 nM) was 105.8%. The “proliferation status after 96 hours, cell line LTK−, 10 nM” value ([5]; 10 nM) was 103.4%, the “proliferation status after 96 hours, cell line LTK−, 100 nM” value ([5]; 100 nM) was 61.7% and the “IC50 SF-268” value [6] was 17.8 ng/mL (≈ 8.55 nM). For the same compound, the “IC50 KB/HELA” value [7] was 18.92 ng/mL (≈ 9.09 nM), the “IC50 RKOp27” value [8] was 5.18 ng/mL (≈ 2.49 nM) and the “IC50 RKOp27 induced” value [9] was over 3160 ng/mL.

For `C/C=C/[C@H](O)C(C)(C)[C@@H]1C\C=C/C=C\C=C\[C@H](OC)Cc2nc(co2)C(=O)O[C@H](C(C)(C)[C@@H](O)/C=C/C)C/C=C\[C@H]2O[C@H]2/C=C/C=C\c2nc(co2)C(=O)O1` [disorazol A1, disorazole A1, reference compound], the “IC50 SKOV-3” value [1] is given as 0.027 ng/mL (≈ 0.0356 nM), the “IC50 NCI-H460” value [2] is given as 0.022 ng/mL (≈ 0.029 nM) and the “antiproliferative action in cell models” value (cell models) is given as “possesses an antiproliferative action”. For the same compound, the “IC50 SF-268” value [6] was 0.125 ng/mL (≈ 0.165 nM), the “IC50 KB/HELA” value [7] was 0.049 ng/mL (≈ 0.0646 nM) and the “IC50 RKOp27” value [8] was 0.049 ng/mL (≈ 0.0646 nM). The “IC50 RKOp27 induced” value [9] was over 3160 ng/mL and the “induction of apoptosis in mammalian cells” value (mammalian cells) was “induces apoptosis”.

In the case of `C/C=C/C(O)C(C)(C)C1C/C=C\C2OC2C=CC(OC)Cc2nc(co2)C(=O)OC(C(C)(C)C(O)/C=C/C)C/C=C\C2OC2/C=C\C=Cc2nc(co2)C(=O)O1` (centres unmarked) [disorazol E1, disorazole E1, reference compound], the “IC50 SKOV-3” value [1] is given as 0.074 ng/mL (≈ 0.0955 nM), the “IC50 NCI-H460” value [2] is given as 0.065 ng/mL (≈ 0.0839 nM) and the “cytotoxic action on various human tumor cell lines” value [10] is given as “possess cytotoxic action”. The “activity against paclitaxel- and vindesine-resistant cell lines” value [11] was “active”, the “IC50 SF-268” value [6] was 0.474 ng/mL (≈ 0.612 nM) and the “IC50 KB/HELA” value [7] was 0.17 ng/mL (≈ 0.219 nM). The “IC50 RKOp27” value [8] was 0.17 ng/mL (≈ 0.219 nM) and the “IC50 RKOp27 induced” value [9] was over 3160 ng/mL.

In the case of `C/C=C/C(O)C(C)(C(=O)OC)C1C\C=C/C=C/C=C/c2nc(co2)C(=O)OC(C(C)(C(=O)OC)C(O)/C=C/C)C\C=C/C=C/C=C/c2nc(co2)C(=O)O1` (centres unmarked) [disorazol Z, disorazole Z, reference compound], the IC50 ([1]; Homo sapiens, SK-OV-3, 45 h, read-out: IC50 SKOV-3) is reported as 0.504 ng/mL (≈ 0.675 nM), the IC50 ([2]; Homo sapiens, NCI-H460, 45 h, read-out: IC50 NCI-H460) is reported as 0.67 ng/mL (≈ 0.897 nM) and the “Average tumor size day 18” value ([3]; 0.16 mg/kg = 215 nmol/kg, day 18) is reported as 146. For the same compound, the “Average tumor size day 0” value ([3]; 0.16 mg/kg = 215 nmol/kg) was 92, the “suppression of tumor growth (in words)” value ([3]; OVCAR-3 tumors, single i.v. dose, day 18) was “moderate suppression of tumor growth” and the IC50 ([6]; Homo sapiens, SF-268, 45 h, read-out: IC50 SF-268) was 1.28 ng/mL (≈ 1.72 nM). It also gave an IC50 ([7]; Homo sapiens, HeLa, 45 h, read-out: IC50 KB/HELA) of 1.01 ng/mL (≈ 1.35 nM), an IC50 ([8]; Homo sapiens, RKOp27, 45 h, read-out: IC50 RKOp27) of 0.659 ng/mL (≈ 0.882 nM) and an IC50 ([9]; Homo sapiens, RKOp27, 45 h, read-out: IC50 RKOp27 induced) of over 3160 ng/mL.

For disorazole D1, the “cytotoxic action on various human tumor cell lines” value [10] is listed as “possess cytotoxic action”.
